Measured values as given in ChEMBL document CHEMBL3885881, “DrugMatrix”.

Organism: Rattus norvegicus
Assay: DrugMatrix - Regimen: Daily Repeat
Format: toxicity, organism-based, Sprague-Dawley
Set-up: regimen Daily Repeat, gender Male, age 6-8 weeks
Details: in vivo, po, route oral GAVAGE, vehicle 100 % WATER; for ABSOLUTE BASOPHIL / ABSOLUTE EOSINOPHIL / ABSOLUTE LYMPHOCYTE / ABSOLUTE MONOCYTE / ABSOLUTE SEGMENTED NEUTROPHIL / BASOPHIL / EOSINOPHIL / ERYTHROCYTE COUNT / HEMATOCRIT / HEMOGLOBIN / LEUKOCYTE COUNT / LYMPHOCYTE / MEAN CORPUSCULAR HEMOGLOBIN / MEAN CORPUSCULAR HEMOGLOBIN CONCENTRATION / MEAN CORPUSCULAR VOLUME / MONOCYTE / NEUTROPHIL / NUCLEATED RED BLOOD CELLS / PLATELET COUNT: tissue Blood; for ALANINE AMINOTRANSFERASE / ALBUMIN / ALKALINE PHOSPHATASE / ASPARTATE AMINOTRANSFERASE / BLOOD UREA NITROGEN / CARBON DIOXIDE / CHLORIDE / CHOLESTEROL / CREATINE PHOSPHOKINASE / CREATININE / GLUCOSE / LACTATE DEHYDROGENASE / LIPASE / PHOSPHORUS / POTASSIUM / SODIUM / TOTAL BILIRUBIN / TOTAL PROTEIN / URIC ACID: tissue Plasma
[1] = 100 mg/kg, 72 h, dose level Low, time 3 day
[2] = 100 mg/kg, 120 h, dose level Low, time 5 day
[3] = 2000 mg/kg, 72 h, dose level High, time 3 day
[4] = 2000 mg/kg, 120 h, dose level High, time 5 day

O=C1O[C@H]([C@@H](O)CO)C(O)=C1O [ASCORBIC ACID]
ABSOLUTE BASOPHIL [1]: 0 CELLS/uL | ABSOLUTE EOSINOPHIL [1]: 27 CELLS/uL | ABSOLUTE LYMPHOCYTE [1]: 7261.67 CELLS/uL | ABSOLUTE MONOCYTE [1]: 27 CELLS/uL | ABSOLUTE SEGMENTED NEUTROPHIL [1]: 717.67 CELLS/uL | BASOPHIL [1]: 0% | EOSINOPHIL [1]: 0.33% | ERYTHROCYTE COUNT [1]: 4.91 x10E6/uL | HEMATOCRIT [1]: 32.13% | HEMOGLOBIN [1]: 13.13 G/DL | LEUKOCYTE COUNT [1]: 8.03 x10E3/uL | LYMPHOCYTE [1]: 89% | MEAN CORPUSCULAR HEMOGLOBIN [1]: 26.8 pg | MEAN CORPUSCULAR HEMOGLOBIN CONCENTRATION [1]: 40.87 G/DL | MEAN CORPUSCULAR VOLUME [1]: 65.43 fL | MONOCYTE [1]: 0.33% | NEUTROPHIL [1]: 10.33% | NUCLEATED RED BLOOD CELLS [1]: 0.33 /100WBC | PLATELET COUNT [1]: 954.33 x10E3/uL | ALANINE AMINOTRANSFERASE [1]: 50 u/L | ALBUMIN [1]: 4.53 G/DL | ALKALINE PHOSPHATASE [1]: 454.67 u/L | ASPARTATE AMINOTRANSFERASE [1]: 87 u/L | BLOOD UREA NITROGEN [1]: 15 mg/dL | CARBON DIOXIDE [1]: 32.33 mmol/L | CHLORIDE [1]: 101 MEQ/L | CHOLESTEROL [1]: 78.33 mg/dL | CREATINE PHOSPHOKINASE [1]: 273 u/L | CREATININE [1]: 0.25 mg/dL | GLUCOSE [1]: 121.33 mg/dL | LACTATE DEHYDROGENASE [1]: 148.67 u/L | LIPASE [1]: 9.67 u/L | PHOSPHORUS [1]: 12.13 mg/dL | POTASSIUM [1]: 7.25 MEQ/L | SODIUM [1]: 146.63 MEQ/L | TOTAL BILIRUBIN [1]: 0.23 mg/dL | TOTAL PROTEIN [1]: 6.33 G/DL | URIC ACID [1]: 1.07 mg/dL | ABSOLUTE BASOPHIL [2]: 0 CELLS/uL | ABSOLUTE EOSINOPHIL [2]: 0 CELLS/uL | ABSOLUTE LYMPHOCYTE [2]: 12684.67 CELLS/uL | ABSOLUTE MONOCYTE [2]: 119.33 CELLS/uL | ABSOLUTE SEGMENTED NEUTROPHIL [2]: 1596 CELLS/uL | BASOPHIL [2]: 0% | EOSINOPHIL [2]: 0% | ERYTHROCYTE COUNT [2]: 5.44 x10E6/uL | HEMATOCRIT [2]: 34.63% | HEMOGLOBIN [2]: 13.63 G/DL | LEUKOCYTE COUNT [2]: 14.4 x10E3/uL | LYMPHOCYTE [2]: 88.33% | MEAN CORPUSCULAR HEMOGLOBIN [2]: 25.07 pg | MEAN CORPUSCULAR HEMOGLOBIN CONCENTRATION [2]: 39.4 G/DL | MEAN CORPUSCULAR VOLUME [2]: 63.67 fL | MONOCYTE [2]: 1% | NEUTROPHIL [2]: 10.67% | NUCLEATED RED BLOOD CELLS [2]: 0 /100WBC | PLATELET COUNT [2]: 1152.33 x10E3/uL | ALANINE AMINOTRANSFERASE [2]: 51.67 u/L | ALBUMIN [2]: 4.3 G/DL | ALKALINE PHOSPHATASE [2]: 417 u/L | ASPARTATE AMINOTRANSFERASE [2]: 79 u/L | BLOOD UREA NITROGEN [2]: 17 mg/dL | CARBON DIOXIDE [2]: 33.33 mmol/L | CHLORIDE [2]: 103 MEQ/L | CHOLESTEROL [2]: 73 mg/dL | CREATINE PHOSPHOKINASE [2]: 142.33 u/L | CREATININE [2]: 0.2 mg/dL | GLUCOSE [2]: 152.67 mg/dL | LACTATE DEHYDROGENASE [2]: 82.33 u/L | LIPASE [2]: 8.33 u/L | PHOSPHORUS [2]: 12.97 mg/dL | POTASSIUM [2]: 6.73 MEQ/L | SODIUM [2]: 148.3 MEQ/L | TOTAL BILIRUBIN [2]: 0.2 mg/dL | TOTAL PROTEIN [2]: 6.23 G/DL | URIC ACID [2]: 1.53 mg/dL | ABSOLUTE BASOPHIL [3]: 0 CELLS/uL | ABSOLUTE EOSINOPHIL [3]: 0 CELLS/uL | ABSOLUTE LYMPHOCYTE [3]: 11911.67 CELLS/uL | ABSOLUTE MONOCYTE [3]: 70.67 CELLS/uL | ABSOLUTE SEGMENTED NEUTROPHIL [3]: 1384.33 CELLS/uL | BASOPHIL [3]: 0% | EOSINOPHIL [3]: 0% | ERYTHROCYTE COUNT [3]: 5.18 x10E6/uL | HEMATOCRIT [3]: 32.77% | HEMOGLOBIN [3]: 13.1 G/DL | LEUKOCYTE COUNT [3]: 13.37 x10E3/uL | LYMPHOCYTE [3]: 89.33% | MEAN CORPUSCULAR HEMOGLOBIN [3]: 25.27 pg | MEAN CORPUSCULAR HEMOGLOBIN CONCENTRATION [3]: 39.97 G/DL | MEAN CORPUSCULAR VOLUME [3]: 63.27 fL | MONOCYTE [3]: 0.67% | NEUTROPHIL [3]: 10% | NUCLEATED RED BLOOD CELLS [3]: 0 /100WBC | PLATELET COUNT [3]: 1123.33 x10E3/uL | ALANINE AMINOTRANSFERASE [3]: 37.67 u/L | ALBUMIN [3]: 4.03 G/DL | ALKALINE PHOSPHATASE [3]: 334 u/L | ASPARTATE AMINOTRANSFERASE [3]: 76.33 u/L | BLOOD UREA NITROGEN [3]: 15.33 mg/dL | CARBON DIOXIDE [3]: 32.33 mmol/L | CHLORIDE [3]: 101.67 MEQ/L | CHOLESTEROL [3]: 63.67 mg/dL | CREATINE PHOSPHOKINASE [3]: 214.33 u/L | CREATININE [3]: 0.17 mg/dL | GLUCOSE [3]: 146.33 mg/dL | LACTATE DEHYDROGENASE [3]: 137.67 u/L | LIPASE [3]: 9 u/L | PHOSPHORUS [3]: 11.5 mg/dL | POTASSIUM [3]: 6.65 MEQ/L | SODIUM [3]: 144.3 MEQ/L | TOTAL BILIRUBIN [3]: 0.2 mg/dL | TOTAL PROTEIN [3]: 5.63 G/DL | URIC ACID [3]: 1.4 mg/dL | ABSOLUTE BASOPHIL [4]: 0 CELLS/uL | ABSOLUTE EOSINOPHIL [4]: 0 CELLS/uL | ABSOLUTE LYMPHOCYTE [4]: 16297.33 CELLS/uL | ABSOLUTE MONOCYTE [4]: 372.33 CELLS/uL | ABSOLUTE SEGMENTED NEUTROPHIL [4]: 863.67 CELLS/uL | BASOPHIL [4]: 0% | EOSINOPHIL [4]: 0% | ERYTHROCYTE COUNT [4]: 5.49 x10E6/uL | HEMATOCRIT [4]: 35.9% | HEMOGLOBIN [4]: 14.2 G/DL | LEUKOCYTE COUNT [4]: 17.53 x10E3/uL | LYMPHOCYTE [4]: 93.33% | MEAN CORPUSCULAR HEMOGLOBIN [4]: 25.9 pg | MEAN CORPUSCULAR HEMOGLOBIN CONCENTRATION [4]: 39.53 G/DL | MEAN CORPUSCULAR VOLUME [4]: 65.47 fL | MONOCYTE [4]: 2% | NEUTROPHIL [4]: 4.67% | NUCLEATED RED BLOOD CELLS [4]: 0.33 /100WBC | PLATELET COUNT [4]: 1195.67 x10E3/uL | ALANINE AMINOTRANSFERASE [4]: 48 u/L | ALBUMIN [4]: 4.23 G/DL | ALKALINE PHOSPHATASE [4]: 355.33 u/L | ASPARTATE AMINOTRANSFERASE [4]: 75.33 u/L | BLOOD UREA NITROGEN [4]: 14.67 mg/dL | CARBON DIOXIDE [4]: 33.67 mmol/L | CHLORIDE [4]: 99.67 MEQ/L | CHOLESTEROL [4]: 70.67 mg/dL | CREATINE PHOSPHOKINASE [4]: 260 u/L | CREATININE [4]: 0.26 mg/dL | GLUCOSE [4]: 135.67 mg/dL | LACTATE DEHYDROGENASE [4]: 215 u/L | LIPASE [4]: 10.67 u/L | PHOSPHORUS [4]: 11.83 mg/dL | POTASSIUM [4]: 6.61 MEQ/L | SODIUM [4]: 144.07 MEQ/L | TOTAL BILIRUBIN [4]: 0.27 mg/dL | TOTAL PROTEIN [4]: 6.03 G/DL | URIC ACID [4]: 1.37 mg/dL
